Measurements reported in patent US20110059885A1, “TREATMENT OF DISEASES AND CONDITIONS MEDIATED BY EICOSANOIDS” (Natural Environment Research Council, priority 2008, published 2011).

Experiments:
Human BLT2 = target: T1, Human BLT2 (Homo sapiens, UniProt Q9NPC1); settings: cited from earlier work
T1 sequence (Q9NPC1 1-358): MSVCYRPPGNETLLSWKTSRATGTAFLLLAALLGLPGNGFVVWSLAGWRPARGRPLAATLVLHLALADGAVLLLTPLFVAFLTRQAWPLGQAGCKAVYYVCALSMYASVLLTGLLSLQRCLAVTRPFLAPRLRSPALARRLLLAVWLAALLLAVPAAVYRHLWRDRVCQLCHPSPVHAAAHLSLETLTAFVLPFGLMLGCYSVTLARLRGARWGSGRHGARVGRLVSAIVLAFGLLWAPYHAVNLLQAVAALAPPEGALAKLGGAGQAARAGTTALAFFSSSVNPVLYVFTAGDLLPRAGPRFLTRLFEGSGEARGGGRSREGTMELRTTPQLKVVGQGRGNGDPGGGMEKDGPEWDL

[1] = tested on: immune complex induced lung injury; test: Immune complex induced lung disease (intranasal anti-Ova antibody); assay type: in vivo, mouse
Protocol: Recombinant OmCI was given at 0, 50, 100 and 250 μg intravenously together with 300 μg Ova containing 0.3% Evans blue (EB). […] MK886 is a leukotriene synthesis inhibitor. MK886 was administered with 300 μg Ova containing 0.3% Evans blue (EB) as a positive control.

[2] = tested on: LTB4 induced skin reaction; test: Local skin reaction induced by topical application of LTB4; assay type: in vivo, human
Protocol: Reactions appear after 12 hours and peak at 24-48 hours.
The solutions were then applied to the flexor surface of the forearm and air dried. […] The deposits were occluded under a chamber which was removed after 6 hours. Skin reactions were observed from 12-96 hours.
Solutions were incubated for 10 minutes at room temperature then applied to the flexor surface of the forearm and air dried. […] The deposits were occluded under a chamber which was removed after 6 hours. Skin reactions were observed from 12-96 hours.

[3] = LTB4 binding by UV absorbance after ultrafiltration
Protocol: The mixture was concentrated to 200 μl in Vivaspin (Sartorious) 5 kDa cut off ultrafiltration device. The retentate was washed with a further 30 mL of PBS and concentrated to 200 μl. In parallel, the same amount (4.5 mg) of bOmCI was incubated with 1.8 ml ultrapure ethanol in 39 mL PBS, then concentrated and washed as described above. The final volume of the concentrated proteins was 200 μl. UV absorption spectra of the proteins were examined using a Nanodrop ND-1000 Spectrophotometer.

[4] = Competitive enzyme immunoassay (EIA) for 12(S)-HETE binding; settings: for proportion of 12(S)-HETE bound: 634 molar excess OmCI to 12(S)-HETE, 12500 pg/mL 12(S)-HETE (FIG. 5)
Protocol: Competitive enzyme immunoassays (EIAs) from Assay Designs Inc. are available for the quantification of a number of the eicosanoids. One such EIA kit uses a polyclonal antibody to 12(S)-HETE to bind 12(S)-HETE labelled with alkaline phosphatase and competing unlabelled 12(S)-HETE in the sample or standards of known concentration. After simultaneous incubation at room temperature and capture of the antibody on the plate, the excess reagents are washed away, the substrate added and reaction measured by microplate reader. The higher the concentration of 12(S)-HETE in sample or standard the lower the absorbance reading, because the unlabelled fatty acid competes for binding with the alkaline phosphatase labelled molecule.
12(S)-HETE EIA Kit was from Assay Designs (Cat. No. 900-050). OmCI stocks used were expressed either in yeast (yOmCI) or bacteria (bOmCI). Both stocks were ≧98% pure, 8.3 mg/mL in phosphate buffered saline pH 7.2 (PBS). The negative control tick histamine binding protein RaHBP2, which is also a lipocalin (Paesen et al., 1999), was expressed in bacteria and was also ≧98% pure, 8.3 mg/mL in PBS. 12(S)-HETE standard was diluted to 50000, 12500, 3125, 781, 195 pg/mL in the assay buffer supplied with the kit. 100 μl of the 12500, 3125 and 0 pg/mL solutions were mixed with ≦9 μl of phosphate buffered saline pH 7.2 (PBS) or solutions of OmCI or RaHBP2 in PBS. The mixtures were incubated at room temperature for 20 minutes then used in the 12(S)-HETE immunoassay in accordance with the manufacturers instructions. The absorbance readings of the treated samples were compared with a standard curve to estimate the concentration of 12(S)-HETE available in solution for binding by the anti-12(S)-HETE polyclonal antibody.
Similar methods to those described in Example 1 were used.

[5] = Competitive EIA for thromboxane B2 binding
Protocol: (§1) 100 μl of the standard solutions were mixed with ≦90 of PBS or diluted stock solutions of OmCI or RaHBP2. The mixtures were incubated at room temperature for 20 minutes then used in the immunoassays in accordance with the manufacturers instructions. The absorbance readings of the treated samples were compared with a standard curve to estimate the concentration of eicosanoids available in solution for binding by the anti-eicosanoid polyclonal antibodies.

[6] = Competitive EIA for cysteinyl leukotriene binding; settings: data not shown
Protocol: as §1

[7] = Competitive EIA for LTB4 with unlabelled LTB4; assay type: binding; settings: 750 pg/mL LTB4 added (FIG. 7)
Protocol: as §1

[8] = LTB4 EIA using only LTB4-AP conjugate as ligand; assay type: binding; settings: for comparison of LTB4-AP binding by yOmCI and bOmCI: equivalent concentrations (FIG. 9)
Protocol: as §1

[9] = Example 5, bOmCI 33×, 16×, 7×, 2× or ovalbumin 15×, 3×, 1× molar excess, forearm (FIG. 12)
[10] = 50 μg intravenous (legend of FIG. 16)
[11] = 100 μg intravenously 15 min prior to intranasal OVA antibody
[12] = AP conjugate only, data not shown

Molecule: CCCCC/C=C\C[C@@H](O)/C=C/C=C/C=C\[C@@H](O)CCCC(=O)O [LTB4, leukotriene B4]
- lower affinity of BLT2 than BLT1 for LTB4 (Human BLT2): 20 fold

Molecule: CC(C)c1ccc2c(c1)c(SC(C)(C)C)c(CC(C)(C)C(=O)O)n2Cc1ccc(Cl)cc1 [MK886, reference compound]
- microvascular damage and inflammation ([1]; positive control (FIG. 16)): reduced dramatically

Molecule: OmCI preloaded with LTB4: bOmCI with LTB4 loaded into the binding pocket (example 6)
- skin reaction induced by 100 ng LTB4 ([2]; Example 8, 4:1 molar ratio, preloaded protein): did not prevent the skin reaction
- inhibitory effect on immune complex induced disease after saturation of the LTB4 binding site ([1]; OmCI preloaded with LTB4 (FIG. 16)): attenuated the inhibitory effect of OmCI although it did not abrogate the response

Molecule: OmCI: soft tick derived complement (C) inhibitor of Ornithodoros moubata, SEQ ID NO: 2 / 3; binds C5 and LTB4
- skin reaction induced by 100 ng LTB4 [2, 9]: completely ablated
- skin reaction induced by 100 ng LTB4 ([2]; Example 8, 4:1 to 1:1 molar ratio (FIG. 15)): ablated the skin reaction
- lesion formation compared to LTB4 alone ([2]; Example 8, molar ratios 0.5:1 and less): no effect on lesion formation
- LTB4 binding stoichiometry and affinity ([3]; conclusion from examples 6 and 7): binds to a single molecule of LTB4 with high affinity
- dose dependence of effect ([1]; 0, 50, 100 and 250 μg intravenously, data not shown): dose dependent
- neutrophil recruitment in the lung [1, 10]: reduces neutrophil recruitment in the lung
- vascular permeability and protein exudation [1, 10]: decreases vascular permeability and protein exudation
- neutrophil recruitment in the lung [1, 11]: reduced neutrophil recruitment in the lung
- pulmonary microvascular damage and protein exudations in the bronchoalveolar space [1, 11]: reduced protein exudations

Molecule: Ovalbumin: negative control protein ovalbumin (Mr 45 kDa) [reference compound]
- skin reaction induced by 100 ng LTB4 [2, 9]: no effect on lesion formation
- lesion formation ([2]; Example 8, negative control protein): no inhibitory effect on lesion formation

Molecule: bOmCI: bacterial expressed OmCI
- proportion of 12(S)-HETE bound [4]: 97%
- amount of 12(S)-HETE available in solution for antibody binding ([4]; 20 min preincubation with 12500 pg/mL 12(S)-HETE, 41.2 μg protein (FIG. 2)): decreases the amount of 12(S)-HETE available in solution
- direct binding of 12(S)-HETE-AP conjugate [4, 12]: not bound directly
- effect of prolonged incubation on proportion of 12(S)-HETE bound ([4]; overnight at room temperature (FIG. 4)): does not increase the proportion of 12(S)-HETE bound
- binding of TXB2 ([5]; 3333 pg/mL TXB2 (FIG. 6)): does not appear to bind
- direct binding of TXB2-AP conjugate [5, 12]: not bound directly
- direct binding of cys-LK-AP conjugate ([6]; AP conjugate only): not bound directly
- binding of Cys-LKs [6]: does not appear to bind
- estimated concentration of LTB4 in solution [7]: 10000 pg/mL
- competition of excess 12(S)-HETE with LTB4-AP binding ([8]; 8.24 μg bOmCI (FIG. 10)): does not outcompete
- amount of protein that binds approximately 50% of the LTB4-AP ([8]; FIG. 8): 0.33 µg
- excess of protein needed to bind 50% of the LTB4-AP ([8]; calculated assuming 100% conjugation efficiency and IC50=1:1 binding): 1200 ×
- binding to LTB4-AP ([8]; dilution series, 50 μL LTB4-AP, no unlabelled LTB4 (FIG. 8)): dose dependent binding
- comparison of LTB4-AP binding by yOmCI and bOmCI [8]: fairly similar
- LTB4 bound from solution ([3]; 1:1 molar ratio OmCI:LTB4, flow through of ultrafiltration (FIG. 13A)): all the LTB4 added to initial mixture was bound

Molecule: yOmCI: yeast expressed OmCI
- proportion of 12(S)-HETE bound [4]: roughly 50%
- comparison of LTB4-AP binding by yOmCI and bOmCI [8]: fairly similar
